# Measured values published in US8222419B2, “Oxepin derivative” (Nippon Zoki Pharmaceutical Co., Ltd., priority 2006, dated 2012).
# Where two headings read alike, the source gives them in different places.
# Legend:
# [1] = tested on: histamine-induced vascular hyperpermeability; assay: Rat histamine-induced vascular hyperpermeability reaction (in vivo antihistamine action); conditions: SD male rat, oral administration 1 hour before intracutaneous histamine (20 μg/location), Evans Blue leakage after 30 minutes
# Experimental: Rat Histamine-Induced Vascular Hyperpermeability Reaction (in Vivo Antihistamine Action)
# An SD male rat (SPF) of 180 g in weight was previously fed for one week or more by allowing the rat to take a solid feed and tap water ad libitum, under the environment setting of a temperature of 22° C., humidity of 55% and an artificial illumination of 12 hours a day (light phase 8 am to 8 pm), and the rat was fasted overnight to be used for the experiment. Histamine-dihydrochloride (hereinafter referred to as histamine) and Evans Blue were used by dissolving each in physiological saline upon use. A substance to be tested was dissolved in water for injection or suspended in 0.5% carboxymethyl cellulose sodium, and the rat was orally administered with the solution or suspension (dose volume: 5 mL/kg body weight). After 1 hour from the administration, the physiological saline and the histamine solution were each intracutaneously injected to two locations (20 μg/0.05 ml/location) each on a back part of the rat of which hair was sheared with an electric clipper while anesthetizing with an ether. A 0.5% Evans Blue-containing physiological saline was injected intravenously to the tail (1 mL/200 g body weight) of the rat immediately before the intracutaneous injection of the histamine.
# After 30 minutes, the animal was decapitated, and allowed to bleed lethally, and the skin was removed to measure an amount of leaked pigment in the blue-stained portion. The measurement of the amount of leaked pigment was carried out as follows. Skins of the pigment leaking site were cut out at two locations, 1 mL of a 2 mol/L aqueous potassium hydroxide solution was added thereto in a test tube, and the test tube was allowed to stand overnight at 37° C. to dissolve. Thereafter, 6 mL of a 1:3 mixed solution of 0.67 mol/L phosphoric acid and acetone was added to the solution, and the mixture was vigorously shaken for 10 minutes. Thereafter, the mixture was filtered, and the absorbance of the filtrate at 620 nm was measured. The absorbance obtained from the two locations of the sites injected with physiological saline, obtained as blank value, was used for a compensation. The amount of leaked pigment was calculated from the calibration curve of Evans Blue at 620 nm.
# [2] = target: T1, H1 receptor (Mus musculus, UniProt P70174); assay: Murine intracranial H1 receptor content (ex vivo), 3H-pyrilamine binding in brain homogenate after oral dosing; conditions: for ID50 (mg/kg)/ED50 (mg/kg): ID50 of intracranial receptor binding test (Table 7) divided by ED50 of histamine-induced vascular hyperpermeability test (Table 6); for ED50: mouse
# T1 construct: The excised brain tissue was homogenized with Polytron; from tissue; host or cells: entire brain except cerebellum and medulla oblongata, homogenate
# T1 sequence (P70174 whole entry): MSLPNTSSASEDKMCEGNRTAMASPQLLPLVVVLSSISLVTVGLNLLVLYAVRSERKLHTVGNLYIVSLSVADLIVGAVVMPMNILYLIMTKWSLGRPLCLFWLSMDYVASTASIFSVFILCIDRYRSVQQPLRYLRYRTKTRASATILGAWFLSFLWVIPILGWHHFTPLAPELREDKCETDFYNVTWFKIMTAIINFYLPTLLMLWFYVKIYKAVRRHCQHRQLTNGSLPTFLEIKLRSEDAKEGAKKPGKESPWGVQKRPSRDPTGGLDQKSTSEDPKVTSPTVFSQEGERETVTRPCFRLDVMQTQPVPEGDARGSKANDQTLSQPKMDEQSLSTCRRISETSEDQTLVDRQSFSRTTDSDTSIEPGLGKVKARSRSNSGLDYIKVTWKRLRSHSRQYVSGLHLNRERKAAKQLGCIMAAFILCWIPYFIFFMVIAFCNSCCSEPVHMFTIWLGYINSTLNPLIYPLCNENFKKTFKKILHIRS
# [3] = oral administration, brain excised after 1 hour, 3H-pyrilamine 2 nmol/L binding to brain homogenate, read-out: ID50 (the source's name)
Compound,melting point,other results
"Cc1ccc2c(c1)C(=C1CCN(C)CC1)c1ccccc1CO2 [Compound 16, 1-Methyl-4-(2-methyl-6H-dibenz[b,e]oxepin-11-ylidene)-piperidine]",133 to 134 °C,–
"CCOC(=O)c1ccc2c(c1)C(=C1CCN(C)CC1)c1ccccc1OC2 [Compound 29, Ethyl 11-(1-methylpiperidin-4-ylidene)-6,11-dihydrodibenz[b,e]oxepin-9-carboxylate]",124 °C (dec.),–
"CN1CCC(=C2c3ccccc3COc3c(C#N)cccc32)CC1 [Compound 34, 11-(1-Methylpiperidin-4-ylidene)-6,11-dihydrodibenz[b,e]oxepin-4-carbonitrile]",175 to 178 °C,–
"CCOC(=O)CNC(=O)c1ccc2c(c1)C(=C1CCN(C)CC1)c1ccccc1CO2 [Compound 3, Ethyl {[11-(1-methylpiperidin-4-ylidene)-6,11-dihydrodibenz[b,e]oxepin-2-carbonyl]amino}acetate]",175 to 178 °C,–
"CN1CCC(=C2c3ccccc3COc3c(C(=O)O)cccc32)CC1 [Compound 37, 11-(1-Methylpiperidin-4-ylidene)-6,11-dihydrodibenz[b,e]oxepin-4-carboxylic acid]",233 °C (dec.),–
"CCOC(=O)NCc1ccc2c(c1)C(=C1CCN(C)CC1)c1ccccc1CO2 [Compound 14, Ethyl [11-(1-methylpiperidin-4-ylidene)-6,11-dihydrodibenz[b,e]oxepin-2-ylmethyl]carbamate]",135 to 136 °C,–
CN1CCC(=C2c3ccccc3COc3ccc(CN)cc32)CC1.Cl.Cl,140 °C (dec.),–
"CCOC(=O)CCC(=O)NCc1ccc2c(c1)C(=C1CCN(C)CC1)c1ccccc1CO2 [Compound 27, Ethyl N-[11-(1-methylpiperidin-4-ylidene)-6,11-dihydrodibenz[b,e]oxepin-2-ylmethyl]succinamate]",150 to 152 °C,–
"CN1CCC(=C2c3ccccc3COc3ccc(Br)cc32)CC1 [Compound 4, 4-(2-Bromo-6H-dibenz[b,e]oxepin-11-ylidene)-1-methylpiperidine]",131 to 132 °C,–
"CN1CCC(=C2c3ccccc3COc3ccc(C(=O)O)cc32)CC1 [Compound 1, 11-(1-Methylpiperidin-4-ylidene)-6,11-dihydrodibenz[b,e]oxepin-2-carboxylic acid]",–,"ED50 [1]: 0.046 mg/kg; ID50 (mg/kg)/ED50 (mg/kg) [2]: 27.2; ED50 [2, 3]: 1.25 mg/kg"
"CN1CCC(=C2c3ccccc3COc3ccc(C(=O)NCCO)cc32)CC1 [Compound 19, N-(2-Hydroxyethyl)-11-(1-methylpiperidin-4-ylidene)-6,11-dihydrodibenz[b,e]oxepin-2-carboxamide]",234 to 236 °C,–
"CN1CCC(=C2c3cc(C(=O)O)ccc3COc3ccccc32)CC1 [Compound 28, 11-(1-Methylpiperidin-4-ylidene)-6,11-dihydrodibenz[b,e]oxepin-9-carboxylic acid]",251 °C (dec.),–
COC(=O)C=Cc1ccc2c(c1)C(=C1CCN(C)CC1)c1ccccc1CO2.Cl,244 °C (dec.),–
"CN1CCC(=C2c3ccccc3COc3ccc(CO)cc32)CC1 [Compound 21, [11-(1-Methylpiperidin-4-ylidene)-6,11-dihydrodibenz[b,e]oxepin-2-yl]methanol]",140 to 143 °C,–
"CCOC(=O)C=Cc1ccc2c(c1)OCc1ccccc1C2=C1CCN(C)CC1 [Compound 35, Ethyl 3-[11-(1-methylpiperidin-4-ylidene)-6,11-dihydrodibenz[b,e]oxepin-3-yl]acrylate]",173 to 175 °C,–
"CN1CCC(=C2c3ccccc3COc3c(C=CC(=O)O)cccc32)CC1 [Compound 32, 3-[11-(1-Methylpiperidin-4-ylidene)-6,11-dihydrodibenz[b,e]oxepin-4-yl]acrylic acid]",188 °C (dec.),–
"CN1CCC(=C2c3ccc(C(=O)O)cc3COc3ccccc32)CC1 [Compound 33, 11-(1-Methylpiperidin-4-ylidene)-6,11-dihydrodibenz[b,e]oxepin-8-carboxylic acid]",210 °C (dec.),–
"CN1CCC(=C2c3ccccc3COc3ccc(CNC(=O)c4ccccc4)cc32)CC1 [Compound 20, N-[11-(1-Methylpiperidin-4-ylidene)-6,11-dihydrodibenz[b,e]oxepin-2-ylmethyl]benzamide]",218 to 219 °C,–

Compound,melting point,other results
"CN1CCC(=C2c3ccccc3CC(=O)c3sccc32)CC1 [Ketotifen, reference compound]",–,ED50 [1]: 0.54 mg/kg
"CCOC(=O)c1cccc2c1OCc1ccccc1C2=C1CCN(C)CC1 [Compound 36, Ethyl 11-(1-methylpiperidin-4-ylidene)-6,11-dihydrodibenz[b,e]oxepin-4-carboxylate]",124 °C (dec.),–
"CN1CCC(=C2c3ccccc3COc3ccc(CCC(=O)O)cc32)CC1.Cl [Compound 43, 3-[11-(1-Methylpiperidin-4-ylidene)-6,11-dihydrodibenz[b,e]oxepin-2-yl]propionate hydrochloride]",–,"ED50 [1]: 0.1 mg/kg; ID50 (mg/kg)/ED50 (mg/kg) [2]: >20.0; ED50 ([2]; po, 1 h, read-out: ID50): < 2 mg/kg"
"CN1CCC(=C2c3ccccc3COc3ccc(-c4nn[nH]n4)cc32)CC1 [Compound 8, 1-Methyl-4-[2-(2H-tetrazol-5-yl)-6H-dibenz[b,e]oxepin-11-ylidene]piperidine]",225 °C (dec.),–
CCOC(=O)c1ccc2c(c1)C(=C1CCN(C)CC1)c1ccccc1CO2.Cl,270 °C (dec.),–
"CN1CCC(=C2c3ccccc3COc3cc(C(=O)O)ccc32)CC1 [Compound 18, 11-(1-Methylpiperidin-4-ylidene)-6,11-dihydrodibenz[b,e]oxepin-3-carboxylic acid]",208 to 212 °C,–
"CN1CCC(=C2c3ccccc3COc3ccc(C=O)cc32)CC1 [Compound 23, 11-(1-Methylpiperidin-4-ylidene)-6,11-dihydrodibenz[b,e]oxepin-2-carboaldehyde]",157 to 160 °C,–
"CN1CCC(=C2c3ccccc3COc3ccc(CNC(=O)OC(C)(C)C)cc32)CC1 [Compound 9, tert-Butyl [11-(1-methylpiperidin-4-ylidene)-6,11-dihydrodibenz[b,e]oxepin-2-ylmethyl]carbamate]",145 to 148 °C,–
"CCOC(=O)C=Cc1cccc2c1OCc1ccccc1C2=C1CCN(C)CC1 [Compound 31, Ethyl 3-[11-(1-methylpiperidin-4-ylidene)-6,11-dihydrodibenz[b,e]oxepin-4-yl]acrylate]",126 to 127 °C,–
CN1CCC(=C2c3ccccc3COc3ccc(C=CCO)cc32)CC1.Cl,118 °C (dec.),–
"CN1CCC(=C2c3ccccc3COc3ccc(CC(=O)O)cc32)CC1 [Compound 24, [11-(1-Methylpiperidin-4-ylidene)-6,11-dihydrodibenz[b,e]oxepin-2-yl]acetic acid]",226 °C (dec.),"ED50 [1]: 0.03 mg/kg; ID50 (mg/kg)/ED50 (mg/kg) [2]: 53.3; ED50 [2, 3]: 1.6 mg/kg"
"CN1CCC(=C2c3ccccc3COc3cc(C#N)ccc32)CC1 [Compound 13, 11-(1-Methylpiperidin-4-ylidene)-6,11-dihydrodibenz[b,e]oxepin-3-carbonitrile]",175 to 176 °C,–
"CN1CCC(=C2c3ccccc3COc3ccc(C=CC(=O)O)cc32)CC1 [Compound 7, 3-[11-(1-Methylpiperidin-4-ylidene)-6,11-dihydrodibenz[b,e]oxepin-2-yl]acrylic acid]",145 °C (dec.),"ED50 [1]: 0.3 mg/kg; ID50 (mg/kg)/ED50 (mg/kg) [2]: 4.4; ED50 [2, 3]: 1.32 mg/kg"
"CN1CCC(=C2c3ccccc3COc3ccc(NC(N)=O)cc32)CC1 [Compound 17, [11-(1-Methylpiperidin-4-ylidene)-6,11-dihydrodibenz[b,e]oxepin-2-yl]urea]",183 °C (dec.),"ED50 [1]: 0.62 mg/kg; ID50 (mg/kg)/ED50 (mg/kg) [2]: 60.6; ED50 [2, 3]: 37.6 mg/kg"
"CC(=O)NCc1ccc2c(c1)C(=C1CCN(C)CC1)c1ccccc1CO2 [Compound 15, N-[11-(1-Methylpiperidin-4-ylidene)-6,11-dihydrodibenz[b,e]oxepin-2-ylmethyl]acetamide]",195 to 196 °C,–
"CN1CCC(=C2c3ccccc3COc3ccc(CNC(=O)CCC(=O)O)cc32)CC1 [Compound 26, N-[11-(1-Methylpiperidin-4-ylidene)-6,11-dihydrodibenz[b,e]oxepin-2-ylmethyl]succinamic acid]",144 °C (dec.),–
"CN1CCC(=C2c3ccccc3COc3cc(Br)ccc32)CC1 [Compound 12, 4-(3-Bromo-6H-dibenz[b,e]oxepin-11-ylidene)-1-methylpiperidine]",127 to 128 °C,–
